The subject of this experiment is IL-1β release from THP-1 cells. In words: IL-1β release assay in differentiated THP-1 cells stimulated with BzATP (ELISA). In kind it is cell-based. The following applies: Homo sapiens; for inhibition at 0.3 µM: 0.3 uM compound, BzATP 250 uM, read-out: IL-1β % Inhib. @ 0.3 uM.; for IC50: released IL-1β as in Example 9, four parameter logistic fit, read-out: IL-Iβ IC50. The method, then:
THP-1 cells (ATCC Cat #285-IF-100) are plated in 96 well plates at a concentration of 200,000 cells per well and allowed to differentiate in RPMI-1640 media (ATCC Cat #30-2001) containing 10% FBS, 100 IU/mL penicillin, 100 ug/mL streptomycin, 100 ng/mL LPS and 100 ng/mL IFN-γ for 16 hours. Following differentiation, the cells are treated for an additional 2 hours in RPMI-1640 media containing 100 IU/mL penicillin, 100 ug/mL streptomycin and fresh LPS at 100 ng/mL. The cells are then pretreated for 30 minutes with the compound of interest at the appropriate concentration in RPMI media containing 100 IU/mL penicillin, 100 ug/mL streptomycin. Following the pretreatment 2′,3′-O-(4-benzoylbenzoyl)-adenosine 5′-triphosphate (Sigma Aldrich Cat # B6396) is added to a final concentration of 250 uM and the cells are incubated for an additional 45 minutes. 30 uL of cell supernatant is then collected and IL-113 levels determined via ELISA (R&D systems Cat. # HSLB50) according to manufacturer's recommendations using the Tecan Safire plate reader. Background adjusted IL-1β levels of drug treated and non-treated cells are used to calculate the percent inhibition. […]
The compounds set forth in Table 1 were tested for activity in a cellular model as described herein. Specifically, cells were pretreated with differing amounts of the compound under test and released IL-1β determined as in Example 9, above. Measurements were made and IC50 values, presented in Table 2, below, were determined by fitting the data to a four parameter logistic equation using GraphPad Prism software (GraphPad Software, Inc). The equation may be expressed by the following formula: Y=Bottom+(Top−Bottom)/(1+10^((LogEC50−X)*HillSlope)) Where X is the logarithm of concentration, Y is the response and Y starts at Bottom and goes to Top with a sigmoid shape.

Where only a bound is given, the exact number is not on record here.

Consider `O=C(NCCc1ccccc1Cl)c1ncnc2c1CCN(Cc1ccccc1)C2` [Compound 2001], for which the inhibition at 0.3 µM fell in the range of 0 to 25% and the IC50 (as a rule, the concentration that gives 50% inhibition) was above 1000 nM. Take `O=C(NCC1CCCCC1)c1ncnc2c1CCNC2` [Compound 2002, 5,6,7,8-Tetrahydro-pyrido[3,4-d]pyrimidine-4-carboxylic acid cyclohexylmethyl-amide]: the inhibition at 0.3 µM fell in the range of 0 to 25%. The same measure, in the same setting: to `O=C(NCCc1ccccc1)c1ncnc2c1CCNC2` [Compound 2003] belongs 0 to 25%; to `O=C(NCC1CCCCC1)c1ncnc2c1CCN(Cc1ccccc1)C2` [Compound 2004], 0 to 25%; to `O=C(NCC1CCCCC1)c1ncnc2c1CCN(Cc1cccnc1)C2` [Compound 2006], 0 to 25%.

Regarding `O=C(NCC1CCCCC1)c1ncnc2c1CCN(Cc1ccncc1)C2` [Compound 2007], the inhibition at 0.3 µM lay within 0 to 25%. Consider `O=C(NCC1CCCCC1)c1ncnc2c1CCN(Cc1ccccc1Cl)C2` [Compound 2008], for which the inhibition at 0.3 µM fell in the range of 0 to 25%. Take `O=C(NCC1CCCCC1)c1ncnc2c1CCN(Cc1ccc(Cl)cc1)C2` [Compound 2009]: the inhibition at 0.3 µM lay in the range of 0 to 25%. Consider `O=C(NCC1CCCCC1)c1ncnc2c1CCN(Cc1ccccn1)C2` [Compound 2010], for which the inhibition at 0.3 µM is 0 to 25%.

Take `O=C(NCC1CCCCC1)c1ncnc2c1CCN(Cc1cccc(Cl)c1)C2` [Compound 2011]: the inhibition at 0.3 µM lay within 0 to 25%.

As to `COc1ccc(CN2CCc3c(ncnc3C(=O)NCC3CCCCC3)C2)cc1` [Compound 2012], the inhibition at 0.3 µM fell in the range of 0 to 25%. As for `Cc1ccc(CN2CCc3c(ncnc3C(=O)NCC3CCCCC3)C2)cc1` [Compound 2013], the inhibition at 0.3 µM fell in the range of 0 to 25%. Take `CS(=O)(=O)c1ccc(CN2CCc3c(ncnc3C(=O)NCC3CCCCC3)C2)cc1` [Compound 2014]: the inhibition at 0.3 µM lay within 0 to 25%.

As to `CC(=O)Nc1ccc(CN2CCc3c(ncnc3C(=O)NCC3CCCCC3)C2)cc1` [Compound 2015], the inhibition at 0.3 µM lay in the range of 0 to 25%. As for `O=C(NCC1(O)CCCCCC1)c1ncnc2c1CCN(Cc1ccccc1)C2` [Compound 2016], the inhibition at 0.3 µM lay in the range of 0 to 25%. For `CC1(C)CCCC(O)(CNC(=O)c2ncnc3c2CCN(Cc2ccccc2)C3)C1` (stereo not shown) [Compound 2017], the inhibition at 0.3 µM is 0 to 25%. On the same count and under the same terms, to `Cc1ccc(C2(CNC(=O)c3ncnc4c3CCN(Cc3ccccc3)C4)CCCCC2)cc1` [Compound 2018] belongs 0 to 25%; to `O=C(NCC12CC3CC(CC(C3)C1)C2)c1ncnc2c1CCN(Cc1ccccc1Cl)C2` [Compound 2025], 26 to 50%. Consider `O=C(NCC1(O)CCCCCC1)c1cccc2c(=O)n(Cc3ccc(F)cc3)ccc12` [Compound 2031, 2-(4-Fluoro-benzyl)-1-oxo-1,2-dihydro-isoquinoline-5-carboxylic acid (1-hydroxy-cycloheptylmethyl)-amide], for which the inhibition at 0.3 µM was above 76% and the half-maximal inhibitory concentration (IC50) turned out to be 42 nM. Turning to `O=C(NCC1CCCCCC1)c1cccc2c(=O)n(Cc3ccc4c(c3)OCCO4)ccc12` [Compound 2036], the inhibition at 0.3 µM is above 76% and the half-maximal inhibitory concentration (IC50) is 11.6 nM. For `O=C(NCC1CCCCCC1)c1cccc2c1CCN(C(CO)CO)C2=O` [Compound 2037], the inhibition at 0.3 µM was in the range of 51 to 75% and the IC50 is 138 nM. Regarding `CC1(C)OCC(Cn2ccc3c(C(=O)NCC4CCCCCC4)cccc3c2=O)O1` (stereo not shown) [Compound 2038], the inhibition at 0.3 µM was in the range of 0 to 25% and the IC50 is 606 nM.

With `O=C(NCC1CCCCCC1)c1cccc2c(=O)n(CC(O)CO)ccc12` (stereo not shown) [Compound 2039, 2-(2,3-Dihydroxy-propyl)-1-oxo-1,2-dihydro-isoquinoline-5-carboxylic acid cycloheptylmethyl-amide], the inhibition at 0.3 µM fell in the range of 51 to 75% and the IC50 was found to be 257 nM. `CC1(C)CCCC(O)(CNC(=O)c2cccc3c(=O)n(CC(O)CO)ccc23)C1` (stereo not shown) [Compound 2042]: the inhibition at 0.3 µM lay in the range of 51 to 75% and the IC50 is 145 nM. Turning to `COCC(O)Cn1ccc2c(C(=O)NCC3CCCCCC3)cccc2c1=O` (stereo not shown) [Compound 2044], the inhibition at 0.3 µM fell in the range of 0 to 25% and the IC50 is above 1000 nM. Consider `Cn1ccc2c(C(=O)NCC3(O)CCCC(C)(C)C3)cccc2c1=O` (stereo not shown) [Compound 2045], for which the inhibition at 0.3 µM was in the range of 0 to 25% and the IC50 is above 1000 nM. `COCC(O)Cn1ccc2c(C(=O)NCC3(O)CCCC(C)(C)C3)cccc2c1=O` (stereo not shown) [Compound 2046]: the inhibition at 0.3 µM fell in the range of 0 to 25% and the IC50 was above 1000 nM. On to `CC(C(N)=O)n1ccc2c(C(=O)NCC3CCCCC3)cccc2c1=O` (stereo not shown) [Compound 2049], for which the inhibition at 0.3 µM was above 76% and the IC50 stood at 122 nM. Consider `CC(C(N)=O)n1ccc2c(C(=O)NCC3CCCCCC3)cccc2c1=O` (stereo not shown) [Compound 2050], for which the inhibition at 0.3 µM is 0 to 25% and the IC50 came out at 654 nM.

In the case of `CC1(C)CCCC(O)(CNC(=O)c2cccc3c(=O)n(CCO)ccc23)C1` (stereo not shown) [Compound 2051], the inhibition at 0.3 µM lay within 51 to 75% and the IC50 stood at 256 nM. As for `O=C(NCC1CCCCC1)c1cccc2c(=O)n(CCO)ccc12` [Compound 2052], the inhibition at 0.3 µM lay in the range of 0 to 25% and the IC50 came out at 694 nM. Consider `O=C(NCc1ccc(Cl)c(C(F)(F)F)c1)c1cccc2c(=O)n(C(CO)CO)ccc12` [Compound 2053, 2-(2-Hydroxy-1-hydroxymethyl-ethyl)-1-oxo-1,2-dihydro-isoquinoline-5-carboxylic acid 4-chloro-3-trifluoromethyl-benzylamide], for which the inhibition at 0.3 µM was above 76% and the IC50 turned out to be 40.4 nM. Regarding `CC1(C)CC(C)(C)CC(O)(CNC(=O)c2cccc3c(=O)n(C(CO)CO)ccc23)C1` [Compound 2054], the inhibition at 0.3 µM was in the range of 51 to 75% and the IC50 stood at 233 nM. For the compound `O=C(NCC1CCCCC1)c1cccc2c(=O)n(C(CO)CO)ccc12` [Compound 2055], the inhibition at 0.3 µM is 51 to 75% and the IC50 turned out to be 269 nM. Turning to `C[C@@H](C(N)=O)n1ccc2c(C(=O)NCC3(O)CCCCCC3)cccc2c1=O` [Compound 2056], the inhibition at 0.3 µM lay in the range of 26 to 50% and the IC50 was found to be 506 nM. `C[C@H](C(N)=O)n1ccc2c(C(=O)NCC3(O)CCCCCC3)cccc2c1=O` [Compound 2057]: the inhibition at 0.3 µM was above 76% and the IC50 is 26.1 nM.

As to `C[C@H](C(N)=O)n1ccc2c(C(=O)NCc3ccc(Cl)c(C(F)(F)F)c3)cccc2c1=O` [Compound 2058, 2-((R)-1-Carbamoyl-ethyl)-1-oxo-1,2-dihydro-isoquinoline-5-carboxylic acid 4-chloro-3-trifluoromethyl-benzylamide], the inhibition at 0.3 µM is above 76% and the IC50 was found to be 21 nM.

For the compound `C[C@@H](C(N)=O)n1ccc2c(C(=O)NCc3ccc(Cl)c(C(F)(F)F)c3)cccc2c1=O` [Compound 2059, 2-((S)-1-Carbamoyl-ethyl)-1-oxo-1,2-dihydro-isoquinoline-5-carboxylic acid 4-chloro-3-trifluoromethyl-benzylamide], the inhibition at 0.3 µM was above 76% and the IC50 is 77.4 nM. Consider `C[C@H](C(N)=O)n1ccc2c(C(=O)NCc3ccc(Cl)c(Cl)c3)cccc2c1=O` [Compound 2060], for which the inhibition at 0.3 µM is above 76% and the IC50 turned out to be 38.2 nM. For `C[C@@H](C(N)=O)n1ccc2c(C(=O)NCc3ccc(Cl)c(Cl)c3)cccc2c1=O` [Compound 2061] the same measures were 51 to 75% and 214 nM. Turning to `C[C@@H](C(N)=O)n1ccc2c(C(=O)NCC34CC5CC(CC(C5)C3)C4)cccc2c1=O` [Compound 2065, 2-((S)-1-Carbamoyl-ethyl)-1-oxo-1,2-dihydro-isoquinoline-5-carboxylic acid (adamantan-1-ylmethyl)-amide], the inhibition at 0.3 µM was above 76% and the IC50 stood at 0.44 nM. For `C[C@H](NC(=O)c1cccc2c(=O)n([C@@H](C)C(N)=O)ccc12)c1ccc(Cl)cc1` [Compound 2066] the same measures were 0 to 25% and above 1000 nM.

Regarding `C[C@@H](NC(=O)c1cccc2c(=O)n([C@@H](C)C(N)=O)ccc12)c1ccc(Cl)cc1` [Compound 2067], the inhibition at 0.3 µM lay within 0 to 25% and the concentration for half-maximal inhibition (IC50) was above 1000 nM. For the compound `C[C@H](CO)n1ccc2c(C(=O)NCc3ccc(C(F)(F)F)cc3)cccc2c1=O` [Compound 2068], the inhibition at 0.3 µM is 51 to 75% and the IC50 was 212 nM. For `C[C@H](CO)n1ccc2c(C(=O)NCC3CCCCCC3)cccc2c1=O` [Compound 2069, 2-((R)-2-Hydroxy-1-methyl-ethyl)-1-oxo-1,2-dihydro-isoquinoline-5-carboxylic acid cycloheptylmethyl-amide] the same measures were above 76% and 6.91 nM.
